Reference: patent US7339059B2, “Benzofurans and indols” (Active Biotech AB, priority 2004, dated 2008)

Experiments:
CCR1 receptor = molecular target: T1, CCR1 receptor (Homo sapiens, UniProt P32246); assay: In vitro Ca2+-flux assay on human monocytes (THP-1), MIP-1α stimulated; format: cell-based; conditions: block of MIP-1α induced Ca2+-flux in THP-1 cells; 2,5-dimethylpiperazine derivatives tested as racemic mixtures
T1 construct: host or cells: THP-1
T1 sequence (P32246 1-355): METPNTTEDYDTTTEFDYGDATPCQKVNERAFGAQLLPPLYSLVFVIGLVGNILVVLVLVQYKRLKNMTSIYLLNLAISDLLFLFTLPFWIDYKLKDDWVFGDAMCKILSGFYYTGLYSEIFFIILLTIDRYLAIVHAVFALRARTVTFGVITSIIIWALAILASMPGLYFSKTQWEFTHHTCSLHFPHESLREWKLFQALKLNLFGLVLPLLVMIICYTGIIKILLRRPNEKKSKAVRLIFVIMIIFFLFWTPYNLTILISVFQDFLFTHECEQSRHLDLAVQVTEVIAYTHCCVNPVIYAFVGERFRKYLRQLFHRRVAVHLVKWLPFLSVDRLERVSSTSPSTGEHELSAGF
Description: The binding of Mip-1α at the CCR1 receptor leads to an increase of intracellular calcium levels. The ability of the compounds of the invention to block this biologic response of the CCR1 receptor is determined in the Ca^2+-flux assay.
In Vitro Ca^2+-Flux Assay on Human Monocytes
• 1. Cell Culture: • a) THP-1 (ATCC Cat# TIB202) • b) Tissue culture medium: RPMI 1640 with Ultraglutamine 1 supplemented with 10% (v/v) foetal calf serum. This medium is hereinafter referred to as “growth medium”. • 2. Assay buffer: HBSS (Hanks' balanced salts solution), 20 mM HEPES, 1 mM CaCl2, 1 mM MgCl2, 2.5 mM Probenecid, pH 7.4. • 3. Fluo-4AM (Molecular Probes Cat # F14201) • 4. Pluronic® F-127 (Molecular Probes Cat # P-6867) • 5. The compounds of the invention were dissolved in DMSO. A serial dilution was made and nine concentrations of each compound were screened to generate a dose curve from which the IC50 value was determined. • 6. MIP-1α (Peprotech EC Ltd Cat# 300-08) • 7. Victor^2 1420 (Perkin Elmer) • 8. Microlite™^2+ (Dynex Cat # 7572) Assay Procedure:
THP-1 cells were grown in T-75 cm^2 flasks in growth medium at 37° C. in 5% CO2. The cells were harvested by centrifugation and resuspended in assay buffer. The cells were then loaded with 5 μM Fluo-4 and 0.02% pluronic acid (final concentrations) at 37° C. in 5% CO2 for 30 min. The excess dye was removed by washing with assay buffer. The cells were resuspended and 10^5 cells/well were added in a Microlite plate containing compounds and then incubated for 15 minutes at 37° C. in 5% CO2. The cells were then stimulated with MIP-1α and changes in intracellular free Ca^2+ concentration were measured with a Victor^2.
Using the procedures set forth in the competitive affinity binding assay and the Ca^2+-flux assay, various compounds of the invention were tested for their ability to block Ca^2+-flux (IC50^Ca). The results of some examples and the Compounds A, B, C, and D are shown in Table 2 where all IC50-values are given in nM (nano Molar). Table 2 exemplifies the invention without limiting the scope thereof.

[1] = In vivo bioavailability in the mouse (cassette dosing); conditions: female SJL/N Tac mice; for half-life / clearance: mouse, nominal dose 1 mg/kg; for half-life: plasma half-life; for clearance: plasma; for F: oral bioavailability, nominal dose 1 mg/kg iv and oral
Description: In Vivo Bioavailability in the Mouse
Female mice (SJL/N Tac) were given a single intravenous or oral dose of a mixture of 5 or 6 compounds per cassette (nominal dose: 1 mg/kg/compound) in a solution containing 0.5% N,N′-dimethylacetamide (DMA) and 15% sulfobutyl ether β-cyclodextrin (Captisol®). Blood samples were taken from one mouse per time point and dose group until 24 hour after respective administration. The dose formulations and plasma concentrations of each compound were determined by LC-MS/MS. The pharmacokinetic parameters were determined by non-compartmental analysis using WinNonlin Professional (version 4.0.1). The elimination rate constant, λ, was estimated by linear regression analysis of the terminal slope of the logarithmic plasma concentration-time curve. The area under the plasma concentration-time curve, AUC0-t, was calculated by using the linear/logarithmic trapezoidal rule. The AUCinf was calculated with the residual area estimated as Cz/λ. The calculated plasma concentration at the last time point, Cz, was obtained from the regression equation. The oral bioavailability (F) was calculated as: Foral=(AUCinf,po/AUCinf,iv)·(Doseiv/Dosepo). Pharmacodynamic Assays
The compounds of the invention show oral bioavailability in the mouse. Using the procedures set forth in the in vivo bioavailability assay, various compounds of the invention were tested for their clearance (CL; L/h/kg), plasma half-life (t1/2; hrs) as well as oral bioavailability (F; %) after administration of the nominal dose of 1 mg/kg of each compound. Table 3 exemplifies the invention, without limiting the scope thereof.

| IC50 (CCR1 receptor) [nM] | half-life [1] [h] | clearance [1] [mL/min/kg] | F [1] [%] | Compound |
| --- | --- | --- | --- | --- |
| 12 | 7 | 15 | 53 | C[C@@H]1CN(C(=O)c2cc3cc(Br)ccc3o2)[C@@H](C)CN1Cc1ccc(F)cc1 (racemic) [Compound 3.1, (trans)-1-(5-Bromo-benzofuran-2-yl-carbonyl)-4-(4-fluorobenzyl)-2,5-dimethylpiperazine] |
| 20 | – | – | – | Cc1ccc2cc(C(=O)N3C[C@@H](C)N(Cc4ccc(F)cc4)C[C@@H]3C)oc2c1 (racemic) [Compound 3.13, (trans)-4-(4-Fluorobenzyl)-1-(6-methyl-benzofuran-2-yl-carbonyl)-2,5-dimethylpiperazine] |
| 15 | – | – | – | C[C@@H]1CN(C(=O)c2cc3cc(Cl)c(Cl)cc3[nH]2)[C@@H](C)CN1Cc1ccc(F)cc1 (racemic) [Compound 3.20, (trans)-(5,6-Dichloro-indol-2-yl-carbonyl)-4-(4-fluorobenzyl)-2,5-dimethylpiperazine] |
| – | 4.8 | 43.3 | 72 | C[C@@H]1CN(C(=O)c2cc3cc(Cl)ccc3o2)[C@@H](C)CN1Cc1ccc(F)cc1 (racemic) [Compound 4.1, (trans)-1-(5-Chloro-benzofuran-2-yl-carbonyl)-4-(4-fluorobenzyl)-2,5-dimethylpiperazine] |
| > 1000 | – | – | – | COc1cccc2cc(C(=O)N3C[C@@H](C)N(Cc4ccc(F)cc4)C[C@H]3C)oc12 (racemic) [Compound A, (cis)-4-(4-Fluorobenzyl)-1-(7-methoxy-benzofuran-2-yl-carbonyl)-2,5-dimethylpiperazine, reference compound] |
| > 1000 | – | – | – | COc1cccc2cc(C(=O)N3C[C@@H](C)N(Cc4ccc(F)cc4)C[C@@H]3C)oc12 (racemic) [Compound D, (trans)-4-(4-Fluorobenzyl)-1-(7-methoxy-benzofuran-2-yl-carbonyl)-2,5-dimethylpiperazine, reference compound] |
| > 1000 | – | – | – | O=C(c1cc2ccccc2o1)N1CCN(Cc2ccc(Cl)cc2)CC1 [Compound C, 4-(4-chlorobenzyl)-1-(benzofuran-2-yl-carbonyl)-piperazine, reference compound] |
